We go through 2 compounds from patent publication US6403563B1, “Antitumor composition containing a synergistic combination of an anthracycline derivative with a camptothecin derivate” (Pharmacia & Upjohn S.p.A., priority 1998, dated 2002).

Values joined by “and” are separate entries in the source; they are usually repeats but may differ in a detail not shown here. Equal values may be shown once.

For data set [1], the system named is disseminated L1210 murine leukemia. In words: Antileukemic activity against disseminated L1210 leukemia in mice. In kind it is in vivo. The source says:
For these experiments Ia was solubilized in [Cremophor®/EtOH=6.5:3.5]/[normal saline]=20/80 v/v, while CPT-11 was solubilized in water.

Data set [2] deals with intracranially implanted P388 tumor cells. In words: Activity against intracranially transplanted P388 murine leukemia. Type of data set: in vivo, mice. As for the experimental part:
Brain tumors/metastases are generally unresponsive largely because cytotoxic drugs fail to cross the blood brain barrier. […] The compound was administered i.v. on days 1,5,9. Results reported in Tab.

Data set [3] can be described thus: Crossing of the blood brain barrier.
Where [4] appears, read: CPT-11 alone 20 mg/kg/day iv days +1,2.
Where [5] appears, read: Ia alone 2.9 mg/kg/day iv day +3.
Setting [6] is: Ia alone 3.8 mg/kg/day iv day +3.

For `CCc1c2c(nc3ccc(OC(=O)N4CCC(N5CCCCC5)CC4)cc13)-c1cc3c(c(=O)n1C2)COC(=O)[C@]3(O)CC` [CPT-11, Irinotecan, reference compound], in data set [1] (setting [4]), the “LTS (Long Term Survivors >60 days)” value was 1/10; the “Tox (number of toxic deaths/number of mice)” value was “without toxicity and 0/10”. For the same compound, in data set [1] (CPT-11 alone 20 mg/kg/day iv days +1,2, L1210 10^5/mouse iv day 0), the “ILS % (increase in life span)” value is 100%.

Consider `CC(=O)C1(O)Cc2c(O)c3c(c(O)c2C(OC2CC(N4CC4)C(OS(C)(=O)=O)C(C)O2)C1)C(=O)c1ccccc1C3=O` (centres unmarked) [Ia, 4-demethoxy-3′-deamino-3′-aziridinyl-4′-methansulfonyl daunorubicin], for which the “ILS % (increase in life span)” value amounted to 92% in data set [1] (setting [5]); 108% in data set [1] (setting [6]); 44% in data set [2] (Ia 2.1 mg/kg/day i.v. days 1, 5, 9, P388 10^4/mouse intracranially day 0); 46% in data set [2] (Ia 2.7 mg/kg/day i.v. days 1, 5, 9 (optimal cumulative dose 8.1 mg/kg)). Further, the “LTS (Long Term Survivors >60 days)” value in data set [1] (setting [5]) and in data set [1] (setting [6]) was 0/10 in each case. The “Tox (number of toxic deaths/number of mice)” value in data set [1] (setting [5]) was “without toxicity and 0/10”; in data set [1] (setting [6]) it was “without toxicity and 0/10”; in data set [2] (Ia 2.1 mg/kg/day i.v. days 1, 5, 9) it was 0/20; in data set [2] (Ia 2.7 mg/kg/day i.v. days 1, 5, 9), 1/20. Besides, the “crossing of the blood brain barrier” value in data set [3] is “crosses the blood brain barrier”.
